Here are results for two molecules from paper PMC6396024, “Artemin and an Artemin-Derived Peptide, Artefin, Induce Neuronal Survival, and Differentiation Through Ret and NCAM” (Frontiers in Molecular Neuroscience, 2019).

Bridge positions count the residues as written; N and C are the ends. Ends that are not written are not given here. I, II: the chains in the order shown.

What all share (assay type): cell-based, Wistar rat
Assay [1] deals with RET; cerebellar granule neurons (CGNs). Nature of the assay: Neurite outgrowth in CGNs with anti-RET antibody. As to conditions: for neurite outgrowth without antibody: ARTN 0.042 nM or artefin 0.47 μM, versus control; for neurite outgrowth with anti-RET antibody / neurite outgrowth with control IgG: 1 h before ARTN 0.042 nM or artefin 0.47 μM; for neurite outgrowth with control IgG: control IgG 4.1 μg/ml. As to the method: (§1) Cerebellar granule neurons (CGNs) were prepared from 7-day-old Wistar rat pups (Charles River Laboratories, Sulzfeld, Germany) as previously described ([Schousboe et al., 1989]). Briefly, pups were decapitated, and the cerebellum was removed and cleared from blood vessels and meninges in ice-cold modified Krebs-Ringer buffer. The cerebellum was dissociated by chopping and trypsinization. Cells were washed in Krebs-Ringer buffer containing DNAse I (Sigma, St. Louis, MO, United States) and soybean trypsin inhibitor (Sigma) to stop trypsinization, and the remaining tissue pieces were pelleted by centrifugation. Cells were then washed in Krebs-Ringer buffer containing Ca^2+ and Mg^2+ and re-suspended in appropriate Neurobasal^TM medium (Invitrogen, Taastrup, Denmark) with supplements depending on the experiment.
(§2) Cerebellar granule neurons CGNs were re-suspended in Neurobasal^TM medium supplemented with 2% (v/v) B27, 0.5% (v/v) glutamax, 100 U/ml penicillin, 100 μg/ml streptomycin, 0.4% (w/v) BSA, and 20 mM HEPES and were seeded in 8-well LabTek Permanox chamber slides (Nunc) at a density of 1 × 10^4 cells/cm^2. Various concentrations of ARTN, artefin, scrambled artefin, or reversed artefin were added to neurons immediately after seeding. For the RET inhibition assay, the inhibitory goat anti-mouse RET antibody (4.1 μg/ml; R&D systems, Abingdon, United Kingdom) or control goat IgG (4.1 μg/ml; Santa Cruz Biotechnology, Dallas, TX, United States) were added to neurons 1 h before stimulation with ARTN (0.042 nM) […]. For the competition assay between growth factor and mimetic peptide, a combination of ARTN (2.1 nM) and artefin (4.2 μM) was added to the cells immediately after seeding. To inhibit Fibroblast growth factor receptor (FGFR) pharmacologically, inhibitor of FGFR, SU5402 (Sigma), was added to the growth medium in serial dilutions of 20, 40, and 80 μM immediately after plating of CGNs, followed by addition of either P2-d (8 μg/ml), ARTN (0.21 nM), or artefin (1.4 μM) 1 h after the plating.
(§3) To estimate neurite outgrowth, neurons were fixated 24 h after stimulation and stained with rabbit anti-growth-associated-protein-43 (GAP-43) antibody (Chemicon International, Inc., Temecula, CA, United States) or anti-GFP antibody (for transfection experiment) overnight at 4°C followed by incubation with secondary Alexa-conjugated goat anti-rabbit antibodies (Invitrogen, Taastrup, Denmark). In case of experiments with plasmid transfection, the transfection efficiency was ca. 20% of total cells and the neurite outgrowth was evaluated only in GFP-positive, i.e., transfected, cells. For representative pictures, cells were additionally co-stained with Hoechst 33258.
(§4) Computer-assisted fluorescent microscopy was performed using a Nikon Diaphot 300 inverted microscope (Nikon) equipped with a Nikon Plan 20× objective and coupled to a video camera (Grundig Electronics, Germany). For each condition in each experiment, including the experiment with transfections, images of approximately 200 cells were recorded in systematic series of fields of view, and neurite outgrowth was quantified using a stereological approach as previously described ([Rønn et al., 2000]).
FIGURE 6 Inhibition of ARTN-induced (A) and artefin-induced (B) neurite outgrowth in CGNs by anti-RET antibody. CGNs were pre-treated directly after plating for 1 h with anti-RET antibody or control IgG in concentrations 4.1 μg/ml before stimulating with ARTN (0.042 nM) or artefin (0.47 μM).

Assay [2] has as its system NCAM; cerebellar granule neurons (CGNs). Nature of the assay: Neurite outgrowth in CGNs with NCAM knock down (NCAM shRNA). As to conditions: 24 h, P2-d 8 μg/ml, ARTN 0.21 nM, artefin 1.4 μM; for neurite outgrowth in NCAM knock down neurons: NCAM shRNA; for neurite outgrowth in mock-transfected neurons: empty vector, versus control. The procedure: as §1
To evaluate the involvement of NCAM and RET in neurite outgrowth induced by either ARTN or artefin, CGNs (3 × 10^6 per transfection) were transfected with 3 μg DNA using a Nucleofector^TM 2b device and a Rat Neuron Nucleofector Kit (Amaxa, Inc., Gaithersburg, MD, United States). A kinase-deleted dominant negative RET insert was obtained by direct PCR using a commercially available clone (IRAKp961P02132Q; RZPD, Berlin, Germany) encoding full-length mouse RET coding sequence 586–3807 nt. as template. The upper primer […] contained a NheI restriction site and Kozak sequence, and the lower primer […] encoded Streptag II and NotI restriction sites. The dominant negative RET insert and the pcDNA5/FRT expression vector containing the Flp-In system were cut with NheI and NotI restriction enzymes, purified, ligated using the Rapid DNA Ligation Kit (Roche, Basel, Switzerland), and transfected into One Shot TOP10 E. coli (Invitrogen, Taastrup, Denmark). E. coli colonies containing the dominant negative RET insert were identified by PCR, and one insert-positive colony was used for plasmid purification. The identity of the purified plasmid was verified by restriction cutting and sequencing of the insert. For NCAM knock down, we used a pENTR vector containing the shRNA expression cassette for NCAM knock down ([Hansen et al., 2007]). An empty vector was used as a control. To identify transfected neurons, all transfections were performed as co-transfections with 0.5 μg pEGFP-N1, an expression vector encoding the enhanced variant of green fluorescent protein (GFP; Clontech, Palo Alto, CA, United States). Transfected CGNs were seeded in Neurobasal^TM-A medium supplemented with 2% (v/v) B27, 5% (v/v) FCS, and 2 mM Glutamax at a density of 1 × 10^5 cells/cm^2.
as §3, §4
FIGURE 7 Neuritogenic effect of ARTN and artefin in (A) dominant negative RET or (B) knock down NCAM-expressing CGNs. […]

For assay [3], the system named is FGFR; cerebellar granule neurons (CGNs). Nature of the assay: Neurite outgrowth in CGNs with FGFR-inhibitor SU5402. As to conditions: SU5402 20, 40, 80 μM; ARTN 0.21 nM or artefin 1.4 μM; p < 0.01. As to the method: as §1
as §2, with “To inhibit Fibroblast growth factor receptor (FGFR) pharmacologically, inhibitor of FGFR, SU5402 (Sigma), was added to the growth medium in serial dilutions of 20, 40, and 80 μM immediately after plating of CGNs, followed by addition of either P2-d (8 μg/ml), ARTN (0.21 nM), or artefin (1.4 μM) 1 h after the plating.” left out
To estimate neurite outgrowth, neurons were fixated 24 h after stimulation and stained with rabbit anti-growth-associated-protein-43 (GAP-43) antibody (Chemicon International, Inc., Temecula, CA, United States) or anti-GFP antibody (for transfection experiment) overnight at 4°C followed by incubation with secondary Alexa-conjugated goat anti-rabbit antibodies (Invitrogen, Taastrup, Denmark). In case of experiments with plasmid transfection, the transfection efficiency was ca. 20% of total cells and the neurite outgrowth was evaluated only in GFP-positive, i.e., transfected, cells. […]
Computer-assisted fluorescent microscopy was performed using a Nikon Diaphot 300 inverted microscope (Nikon) equipped with a Nikon Plan 20× objective and coupled to a video camera (Grundig Electronics, Germany). For each condition in each experiment, including the experiment with transfections, images of approximately 200 cells were recorded in systematic series of fields of view, and neurite outgrowth was quantified using a stereological approach as previously described ([Rønn et al., 2000]). […]

As for “I: RSPHDLSLASLLGAGKK-NH2 / II: RSPHDLSLASLLGAGK / III: RSPHDLSLASLLGAG / IV: RSPHDLSLASLLGAG (amide I:16-IV:C, I:17-II:C, II:16-III:C; C-terminus assumed) [artefin]”, in assay [1], the “neurite outgrowth without antibody” value was “significantly increased when compared to the control (p < 0.01)” and the “neurite outgrowth with control IgG” value is given as “did not significantly alter the neuritogenic effect of artefin”. In assay [1] (anti-RET antibody 4.1 μg/ml), the “neurite outgrowth with anti-RET antibody” value is given as “statistically significant reduction of artefin-induced neurite outgrowth (p < 0.01 versus artefin alone)”. Further, the “neurite outgrowth with anti-RET antibody versus unstimulated control” value in assay [1] (anti-RET antibody 4.1 μg/ml, artefin 0.47 μM, p < 0.01) is listed as “still significantly different from unstimulated control”. In assay [2], the “neurite outgrowth in NCAM knock down neurons” value was “abrogated in neurons where NCAM expression was knocked down (p < 0.001” and the “neurite outgrowth in mock-transfected neurons” value is on record as “promoted the neurite outgrowth in mock-transfected neurons (p < 0.01)”. Also, in assay [3], the “neurite outgrowth effect in the presence of SU5402” value is recorded as “dose-dependently inhibited the neurite outgrowth effect of artefin”.

B1: recombinant human Artemin (ARTN) (ligand, UniProt Q5T4W7 108-220, looked up)
chain: AGGPGSRARAAGARGCRLRSQLVPVRALGLGHRSDELVRFRFCSGSCRRARSPHDLSLASLLGAGALRPPPGSRPVSQPCCRPTRYEAVSFMDVNSTWRTVDRLSATACGCLG
notes: Artemin (ARTN), human, UniProt D3DPX9; source: bought: R&D Systems
With B1, in assay [1], the “neurite outgrowth without antibody” value is recorded as “significantly higher level of neurite outgrowth than control cultures” and the “neurite outgrowth with control IgG” value is recorded as “did not affect the ARTN-induced neurite outgrowth”. Moreover, in assay [1] (anti-RET antibody 4.1 μg/ml), the “neurite outgrowth with anti-RET antibody” value is on record as “completely abolished the neurite elongation effect of ARTN”. Also, in assay [2], the “neurite outgrowth in NCAM knock down neurons” value is “completely abolished the neurite outgrowth effect of ARTN” and the “neurite outgrowth in mock-transfected neurons” value is on record as “significantly higher level of neurite outgrowth compared to unstimulated controls (p < 0.05”. In assay [3], the “neurite outgrowth effect in the presence of SU5402” value was “completely abolished in the presence of serially diluted inhibitor”.
